Measurements reported in patent US8143419B2, “Trisubstituted 1,2,4-triazoles” (Janssen Pharmaceutica N. V., priority 2006, dated 2012).

How the values were obtained:
[1] = molecular target: T1, hα7-wt nAChR (Homo sapiens, UniProt P36544); assay: Ca2+ flux imaging (FLIPR) (Protocol A), PAM activity with choline as agonist; type: cell-based; details: for EC50: "<5" = no top plateau at maximal concentration; for Emax: read-out: % efficacy
T1 construct: expressed in transfected cells
Text: Stable expression in mammalian cells in general and rat GH4C1 cells in particular, of cDNA clones encoding the human α7 wild-type sequence (hα7-wt nAChR) and in which the coding region is placed downstream of a promoter results in the appearance of functional α7 nAChRs on the surface of the mammalian cells. This technique has provided a powerful means of assessing the function of α7 wild-type protein. Given the fact that the cation permeability of the α7 nicotinic receptor preferentially favours calcium, fluorescent imaging of Ca^2+ flux through the hα7-wt nAChR stably expressed in the GH4C1 cell line was used as a first means of assaying modulator activity of the compounds of the present invention.
• Hanks buffered saline solution (HBSS, Invitrogen, Belgium), supplemented with 10 mM HEPES (Invitrogen, Belgium), CaCl2 to a final concentration of 5 mM, 0.1% Bovine serum albumin (Sigma-Aldrich NV, Belgium), 2.5 mM probenecid (Sigma-Aldrich NV, Belgium). b) Calcium-Sensitive Dye—Fluo-4AM • Fluo-4AM (Molecular Probes, USA) was dissolved in DMSO containing 10% Pluronic acid (Molecular Probes, USA) to give a stock solution which was aliquoted and stored at −20° C. until later use. On the day of the experiment Fluo-4AM stock was defrosted and diluted in DMEM/F12 (Invitrogen, Belgium) to give a final concentration of 4 μM. c) 96-Well Plates • BD Biocoat poly-D-lysine 96-well black/clear plates (BD Biosciences, Belgium) d) Calcium Flux Measurement • A Fluorimetric Imaging Plate Reader (FLIPR, Molecular Devices Corporation, Sunnyvale, USA) was used to measure intracellular free-calcium flux signals Method
Monolayers of hα7-wt nAChR-expressing cells were grown in multi-well plates, in particular black-sided, transparent bottomed 96 well plates coated with poly-D-lysine for 24 hours prior to loading with a fluorescent calcium indicator, in a particular embodiment loading with fluo-3 or fluo-4AM for up to 90 minutes, in an even more particular embodiment loading with fluo-4AM for up to 90 minutes, and in a preferred embodiment loading with fluo-4AM for up to 60 minutes.
PAM activity was detected in real time by applying the compounds to be tested to the loaded cells along with a α7 nicotinic receptor agonist during constant monitoring of cellular fluorescence in a FLIPR. Compounds giving peak fluorescent responses greater than the response due to agonist alone, were considered to be α7 nAChR PAM's. In a particular embodiment, the α7 nicotinic receptor agonist was choline, a more particular embodiment choline applied at a sub-maximal concentration of 100 μM. In a further setting of the present invention the compounds to be tested were applied prior to the α7 nicotinic receptor agonist, in a particular embodiment up to 20 minutes prior to the agonist, a more particular embodiment up to 10 minutes prior to the agonist, and an even more particular embodiment 10 minutes prior to the agonist.
A control response to choline was calculated on each plate from the difference in peak in fluorescence in wells receiving either choline or assay buffer alone. Compounds of the present invention were tested at a concentration range from 0.1 μM to 50 μM. Compounds were considered to have an interesting activity when their efficacy was at least 500% when tested at the concentration where they have a maximal effect, typically between 0.1 μM and 50 μM (the efficacy of 100 μM choline was defined as 100% in the absence of a PAM). The compounds also have a potentiating effect on the response to choline when measured by whole-cell patch clamp electrophysiology in GH4C1 cells stably over-expressing the human wild-type α7 receptor.

[2] = molecular target: T1, hα7-wt nAChR; assay: Ca2+ flux imaging (FDSS) (Protocol B), PAM activity with choline as agonist; type: cell-based; details: for EC50: "<5" = no top plateau at maximal concentration; for Emax: read-out: % efficacy
Method in brief: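 Cells stably expressing human wild-type α7 nAChR, loaded with fluo-4AM (2 μM final) up to 120 min in HBSS/10 mM HEPES/5 mM CaCl2/0.1% BSA with 5 mM probenecid. Compounds (0.01–30 μM) added up to 10 min before 100 μM choline; peak fluorescence read on FDSS, potentiation expressed relative to choline-alone response (100%).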

T1 sequence (P36544 23-502): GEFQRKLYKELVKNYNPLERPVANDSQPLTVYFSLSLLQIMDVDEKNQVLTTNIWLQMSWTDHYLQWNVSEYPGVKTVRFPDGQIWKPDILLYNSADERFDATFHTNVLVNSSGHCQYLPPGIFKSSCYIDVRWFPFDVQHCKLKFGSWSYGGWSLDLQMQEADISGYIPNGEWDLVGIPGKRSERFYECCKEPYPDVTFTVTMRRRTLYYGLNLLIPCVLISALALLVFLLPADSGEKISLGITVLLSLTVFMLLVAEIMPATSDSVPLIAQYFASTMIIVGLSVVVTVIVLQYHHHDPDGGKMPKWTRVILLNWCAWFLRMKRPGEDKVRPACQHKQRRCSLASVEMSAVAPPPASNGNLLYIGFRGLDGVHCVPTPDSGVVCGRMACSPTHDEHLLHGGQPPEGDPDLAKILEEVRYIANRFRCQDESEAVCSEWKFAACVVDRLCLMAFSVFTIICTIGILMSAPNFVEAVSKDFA

Row | EC50 [1] | melting point | Emax [1] | EC50 [2] | Emax [2] | Structure (SMILES)
1 | 3.16 µM | 188.3 to 190.3 °C |  |  |  | OCCn1nc(Nc2cccc(C(F)(F)F)c2)nc1-c1ccc2c(c1)OCCO2 [Compound 3]
2 | 0.158 µM | 195.7 to 196.6 °C |  |  |  | CN(C)C(=O)CCn1nc(Nc2cccc(C(F)(F)F)c2)nc1-c1ccc2c(c1)OCCO2 [Compound 6]
3 | 6.31 µM |  |  |  |  | OCCn1nc(Nc2cccc(C(F)(F)F)c2)nc1-c1ccnc(Cl)c1 [Compound 7]
4 | > 10 µM |  | 938% |  |  | CNC(=O)CCn1nc(Nc2cccc(C(F)(F)F)c2)nc1-c1ccncc1 [Compound 11]
5 | 2 µM | 179.9 to 182.1 °C |  |  |  | CNC(=O)Cn1nc(Nc2cccc(C(F)(F)F)c2)nc1-c1ccc(Cl)cc1Cl [Compound 13]
6 | 7.94 µM | 158.2 to 159 °C | 583% |  |  | OCCn1nc(Nc2cccc(C(F)(F)F)c2)nc1-c1cccnc1 [Compound 16]
7 | > 10 µM | 193 to 194 °C |  |  |  | Cn1nc(Nc2ccccc2)nc1-c1ccc(Cl)cc1Cl [Compound 18]
8 | > 10 µM | 203.6 to 206.4 °C |  |  |  | NC(=O)Cn1nc(Nc2cccc(C(F)(F)F)c2)nc1-c1ccc(Cl)cc1Cl [Compound 20]
9 | > 10 µM |  |  |  |  | CN(C)C(=O)Cn1nc(Nc2cccc(C(F)(F)F)c2)nc1-c1ccc2c(c1)OCCO2 [Compound 23]
10 | > 10 µM | 171.2 °C |  |  |  | CC(=O)NCCCn1nc(Nc2ccc(F)c(C(F)(F)F)c2)nc1-c1ccnc(C)c1 [Compound 27]
11 | 3.98 µM | 167.4 °C |  |  |  | OCCn1nc(Nc2cccc(C(F)(F)F)c2)nc1-c1ccnc(N2CCOCC2)c1 [Compound 38]
12 | 7.94 µM | 147.2 °C | 641% |  |  | COCCn1nc(Nc2cccc(C(F)(F)F)c2)nc1-c1ccncc1 [Compound 52]
13 | > 10 µM | 173.1 °C |  |  |  | OCCn1nc(Nc2cccc(C(F)(F)F)c2)nc1-c1cnc2c(c1)OCC2 [Compound 78]
14 | > 10 µM | 158.8 °C |  |  |  | OCCn1nc(Nc2cccc(C(F)(F)F)c2)nc1-c1cnc2ccoc2c1 [Compound 79]
15 | 3.16 µM | 182 °C |  |  |  | OCCn1nc(Nc2cccc(C(F)(F)F)c2)nc1-c1cnc2ccccc2c1 [Compound 80]
16 | > 10 µM | 149.2 °C |  |  |  | CCOC(=O)Cn1nc(Nc2cccc(C(F)(F)F)c2)nc1-c1ccc2c(c1)OCO2 [Compound 81]
17 | 3.98 µM |  |  |  |  | C[C@@H](O)Cn1nc(Nc2ccc(F)c(C(F)(F)F)c2)nc1-c1ccc(C2CC2)nc1 [Compound 100]
18 | 3.16 µM | 113.1 to 115.1 °C |  |  |  | CN(C)C(=O)CCn1nc(N(C)c2ccc(F)c(C(F)(F)F)c2)nc1-c1ccc2c(c1)OCCO2 [Compound 135]

Row | EC50 [1] | melting point | Emax [1] | EC50 [2] | Emax [2] | Structure (SMILES)
19 | 3.98 µM | 125.5 °C |  |  |  | CC(O)Cn1nc(Nc2cccc(OC(F)(F)F)c2)nc1-c1ccc(C2CC2)nc1 (stereo not shown) [Compound 150]
20 | 3.98 µM |  |  |  |  | FCCn1nc(Nc2cccc(OC(F)(F)F)c2)nc1-c1ccnc(C2CC2)c1 [Compound 152]
21 | 2.51 µM | 131.4 °C | 904% |  |  | C[C@H](O)Cn1nc(Nc2ccc(F)c(F)c2)nc1-c1ccnc(C2CC2)c1 [Compound 175]
22 | 3.98 µM | 150.3 °C |  |  |  | FCCn1nc(Nc2cc(F)cc(F)c2)nc1-c1ccnc(C2CC2)c1 [Compound 177]
23 | > 10 µM | 247 °C |  |  |  | CNC(=O)Cn1nc(Nc2cc(F)cc(F)c2)nc1-c1ccnc(NC)c1 [Compound 178]
24 | 3.16 µM | 134.7 to 136.7 °C |  |  |  | COc1ccc(Cl)c(Nc2nc(-c3ccc4c(c3)OCCO4)n(CCC(=O)N(C)C)n2)c1 [Compound 196]
25 |  | 227 °C |  | 2000 nM |  | CNC(=O)Cn1nc(Nc2ccc3c(c2)OC(F)(F)O3)nc1-c1ccnc(C)c1 [Compound 200]
26 |  | 223.5 °C |  | 1000 nM |  | CCNC(=O)Cn1nc(Nc2ccc3c(c2)OC(F)(F)O3)nc1-c1ccnc(C)c1F [Compound 201]
27 |  | 243 °C |  | 3160 nM |  | CNC(=O)Cn1nc(Nc2ccc3c(c2)OC(F)(F)O3)nc1-c1cc(C)ncc1Cl [Compound 202]
28 |  | 231.3 °C |  | 3160 nM |  | CNC(=O)Cn1nc(Nc2ccc3c(c2)OC(F)(F)O3)nc1-c1cc(Cl)ncc1Cl [Compound 203]
29 |  | 260.1 °C |  | 631 nM |  | CCNC(=O)Cn1nc(Nc2ccc3c(c2)OC(F)(F)O3)nc1-c1ccnc2c1CCC2 [Compound 204]
30 |  | 224.8 °C |  | 794 nM |  | Cc1cc(-c2nc(Nc3ccc4c(c3)OC(F)(F)O4)nn2CC(=O)NC2CCC2)ccn1 [Compound 205]
31 |  | 229.1 °C |  | 631 nM |  | Cc1cc(-c2nc(Nc3ccc4c(c3)OC(F)(F)O4)nn2CC(=O)NC2CCCC2)ccn1 [Compound 206]
32 |  | 219.7 °C |  | > 10000 nM | 811% | Cc1cc(-c2nc(Nc3ccc4c(c3)OC(F)(F)O4)nn2CC(=O)NC2CCCC2O)ccn1 (stereo not shown) [Compound 207]
33 |  | 253.8 °C |  | 5010 nM | 909% | Cc1cc(-c2nc(Nc3ccc4c(c3)OC(F)(F)O4)nn2CC(=O)NC2CCOC2)ccn1 (stereo not shown) [Compound 208]
34 |  | 182.2 °C |  | 398 nM |  | Cc1cc(-c2nc(Nc3ccc4c(c3)OC(F)(F)O4)nn2CCC(=O)N(C)C)cc(C)n1 [Compound 209]
35 |  | 201.5 °C |  | 316 nM |  | CN(C)C(=O)CCn1nc(Nc2ccc3c(c2)OC(F)(F)O3)nc1-c1ccncc1F [Compound 210]
36 |  | 214.2 to 223.5 °C |  | 1260 nM |  | CNC(=O)Cn1nc(Nc2ccnc(C(F)(F)F)c2)nc1-c1ccc2c(c1)OCCO2 [Compound 212]
